US20030158529A1 (priority 2001, published 2003)
Read-outs that look alike come from different tables or passages of the source.

Experiments:
Type in all cases: cell-based, Staphylococcus aureus
S. aureus (MN8) = test system: S. aureus (MN8)
S. aureus FRI-1187 = test system: S. aureus FRI-1187
S. aureus FRI-1169 = test system: S. aureus FRI-1169

Row | SMILES | CFU/mL (S. aureus (MN8)) [CFU/mL] | ELISA: TSST-1 ng/OD unit (S. aureus (MN8)) [ng/OD unit] | Optical Density 600 nm (S. aureus (MN8)) | CFU/mL (S. aureus FRI-1187) [CFU/mL] | Optical Density 600 nm (S. aureus FRI-1187) | ELISA: TSST-1 ng/OD unit (S. aureus FRI-1187; S. aureus FRI-1187, 0.5 ug/mL) [ng/OD unit] | Reduction of Toxin (%) (S. aureus (MN8)) | ELISA: TSST-1 ng/OD unit (S. aureus (MN8); S. aureus MN8, 0.01 μg/mL test compound, 24 hours) [ng/OD unit] | Optical Density 600 nm (S. aureus (MN8); S. aureus MN8, 0.01 μg/mL test compound, 24 hours, 35° C.) | CFU/mL (S. aureus FRI-1169) [CFU/mL] | Optical Density 600 nm (S. aureus FRI-1169) | ELISA: TSST-1 ng/OD unit (S. aureus FRI-1169; S. aureus FRI-1169, 0.5 μg/mL) [ng/OD unit] | ELISA: TSST-1 ng/OD unit (S. aureus (MN8); S. aureus MN8, 2 μg/mL test compound, 24 hours) [ng/OD unit] | Optical Density 600 nm (S. aureus (MN8); S. aureus MN8, 2 μg/mL test compound, 24 hours, 35° C.)
1 | Oc1ccc(Cc2ccccc2)cc1 [4-Hydroxydiphenylmethane, 4-hydroxydiphenyl methane] | 1.1E+08 | 785 | 0.581 |  |  |  |  |  |  |  |  |  |  | 
2 | Oc1cc(Cl)ccc1Oc1ccc(Cl)cc1Cl [Triclosan, triclosan] | 1.0E+08 |  |  | 1.56E+09 | 0.156 | 95 | 88 | 129 | 0.271 | 1.50E+09 | 0.625 | 40 |  | 
3 | Oc1c(Cl)cc(Cl)c(Cl)c1Cc1c(O)c(Cl)cc(Cl)c1Cl [Hexachlorophene, hexachlorophene] | 3.7E+08 |  |  |  |  |  | 68 |  |  |  |  |  | 330 | 0.350
